Row | Structure (SMILES) | melting point
1 | Cc1ccc(C(=O)Nc2ccc(N3CCN(C)CC3)c(C(F)(F)F)c2)cc1Nc1nccc(-c2cccnc2)n1 | 214 to 217 °C
2 | COC(=O)c1ccc(OCCN2C(=O)c3ccccc3C2=O)cc1 | 129 to 130 °C
3 | COc1ccc(N2CCN(c3c(C)c(C)c4c(c3C)C(OCc3ccccn3)C(C)(C)O4)CC2)cc1 (centres undefined) | 120 to 121 °C
4 | CC(C)(N)CCOc1ccc(Cl)nn1 | 63.5 to 65 °C
5 | Cc1cccc(-c2nccc(O)n2)c1 | 148 to 150 °C
6 | Cn1ncc(C(=O)N2CCCC2)c1C(=O)Nc1ccn2nc(-c3cccnc3)nc2c1 | 226 to 228 °C
7 | CC(C)(C)OC(=O)C=CC1C(C(=O)OC(C#N)c2ccc(F)c(Oc3ccccc3)c2)C1(C)C (centres undefined) | 114 °C
8 | Cc1cc(N)c(C)c(/C=C/C(=O)O)c1 | 185 °C
9 | CCOc1ccc(-c2nc(OC)ccc2N2CCC(c3ccc(OC)cc3)N(C)CC2)cc1 (centres undefined) | 103 to 107 °C
10 | O=C1c2ccccc2C(O)N1c1ccc2ccc(F)nc2n1 (centres undefined) | 246 °C
11 | CCN(CC)CCC(=O)NC1(c2ccccc2Cl)C(=O)Nc2ccc(Cl)cc21 (centres undefined) | 176 to 178 °C
12 | CCOC(=O)c1cc(CC)sc1Nc1cc(F)cc(F)c1N | 106 °C
13 | CSc1ccc(Oc2ccc([N+](=O)[O-])cc2[N+](=O)[O-])cc1 | 119 to 120 °C
14 | CCOC(=O)C1=NOC(c2ccccc2)(c2ccccc2)C1 | 78 to 81 °C
15 | O=C1CCc2cc(Cl)c(S(=O)(=O)NCc3ccccc3)cc21 | 228 to 231 °C
16 | CCOC(=O)c1c(C(F)(F)F)nc(C(F)F)c(C(=O)OC)c1OCC | 59 to 61 °C
17 | Nc1nc2c(c(Nc3ccc(C(F)(F)F)cc3)n1)-c1ccccc1C2 | 229 to 231 °C
18 | CC(C)(C)OC(=O)COc1ccc(/C=C/C(=O)C(F)(F)F)cc1 | 112 to 113 °C
19 | CCOP(=O)(CCN(OCc1ccccc1)S(=O)(=O)c1ccc(C)cc1)OCC | 78 to 80 °C
20 | COC1CN(C(=O)c2cc(-c3ccccc3)c(=O)n3c2-c2sccc2C3)C1 | 192 to 193 °C

Row | Structure (SMILES) | melting point
21 | O=[N+]([O-])c1ccc(-c2nnc3ccc(Cl)nn23)s1 | 215 to 217 °C
22 | CCCOc1ccc(S(=O)(=O)N2CCN(Cc3ccccc3)CC2)cc1-c1nc2cc(Cl)c([N+](=O)[O-])cc2c(=O)[nH]1 | 198 to 200 °C
23 | Cc1cc2c(cc1-c1ccc(C=O)s1)C(C)(C)CCC2(C)C | 130 to 135 °C
24 | C#CCOCC(C)(COCC#C)NC(=O)C(Oc1ccc2ncc(C#C)cc2c1)SC (centres undefined) | 95 to 100 °C
25 | O=C1NC(=O)C(CCOc2ccc(F)cc2)S1 (centres undefined) | 94 to 96 °C
26 | CCOC(=O)N(C)n1cccc1C(=O)c1ccccc1 | 50 to 52 °C
27 | CON=C1CCCc2cc(C(=O)OC)c(C)nc21 | 124 to 125 °C
28 | COc1cccc(C=CC(=O)C2=C(O)C(=C(C)Nc3ccccc3N)C(=O)OC2=O)c1OC | 212 to 215 °C
29 | CC(CC(F)(F)CC(Cl)(CO)CO)C1CCC2C3CC=C4CC(O)CCC4(C)C3CCC12C (centres undefined) | 152 to 153 °C
30 | COc1ccc2cc3c(Nc4ccc(Cl)cc4Cl)c(C#N)cnc3cc2c1 | > 260 °C
31 | CC(=O)OCC1OC(OC(C)=O)C(N=[N+]=[N-])C(OC(C)=O)C1OC(C)=O (centres undefined) | 131 to 132 °C
32 | O=C(O)c1csc(Br)n1 | 227 to 229 °C
33 | COc1ccccc1NC(=O)NCc1nnc(C)n1-c1sc(C)c(C)c1C(=O)c1ccc(Cl)cc1 | 228 to 230 °C
34 | CC1(C)Oc2ccc(C#N)cc2[C@@H](N2CCCCC2=O)[C@@H]1O (relative stereo) | 155 °C
35 | CCOC(=O)COc1ccc2c(c1)CCCC2=O | 39 to 41 °C
36 | CC(C)N(O)C(=O)c1c(Cl)cccc1[Si](C)(C)C | 175 to 179 °C
37 | O=C(N[C@H](Cc1cccc(C(F)(F)F)c1)[C@@H](O)c1ccc(F)cc1)C1CCCCC1 (racemic) | 190 to 191 °C
38 | COc1cccc(-c2noc3ccsc23)c1 | 51 to 52 °C
39 | CC(C)Oc1cn(-c2cccc(C(F)(F)F)c2)nc(-c2ccnn2-c2ccccc2)c1=O | 137 to 139 °C

From a melting point compilation (Tetko et al.; mined from patent text by program, amines drawn as free bases though some values may be those of a salt)
